Test results taken from ChEMBL document CHEMBL3046052, “New thiazolidinedione-5-acetic acid amide derivatives: synthesis, characterization and investigation of antimicrobial and cytotoxic properties” (Med Chem Res, 2012).
≈ marks a conversion by molar mass, not a printed value.

What was measured:
MCF7 = experiment: Cytotoxicity against Homo sapiens (human) MCF7 cells after 24 hr by MTT assay; assay type: functional, cell-based; conditions: MCF7, 24 h
A549 = experiment: Cytotoxicity against Homo sapiens (human) A549 cells after 24 hr by MTT assay; assay type: functional, cell-based; conditions: A549, 24 h
HT-29 = experiment: Cytotoxicity against Homo sapiens (human) HT-29 cells after 24 hr by MTT assay; assay type: functional, cell-based; conditions: HT-29, 24 h
HeLa = experiment: Cytotoxicity against Homo sapiens (human) HeLa cells after 24 hr by MTT assay; assay type: functional, cell-based
Aspergillus niger = experiment: Antifungal activity against Aspergillus niger ATCC 6275 after 48 hr by NCCLS two-fold serial dilution method; assay type: functional; conditions: ATCC 6275, 48 h
Aspergillus flavus = experiment: Antifungal activity against Aspergillus flavus NCIM 524 after 48 hr by NCCLS two-foldserial dilution method; assay type: functional; conditions: NCIM 524, 48 h
Cryptococcus neoformans = experiment: Antifungal activity against Cryptococcus neoformans clinical isolate after 48 hr by NCCLS two-fold serial dilution method; assay type: functional
Candida albicans = experiment: Antifungal activity against Candida albicans ATCC 2091 after 48 hr by NCCLS two-fold serial dilution method; assay type: functional; conditions: ATCC 2091, 48 h
Enterococcus faecalis = experiment: Antibacterial activity against Enterococcus faecalis ATCC 35550 after 24 hr by NCCLS two-fold serial dilution method; assay type: functional; conditions: ATCC 35550, 24 h
Staphylococcus aureus = experiment: Antibacterial activity against Staphylococcus aureus ATCC 25923 after 24 hr by NCCLS two fold serial dilution method; assay type: functional; conditions: ATCC 25923, 24 h
Pseudomonas aeruginosa = experiment: Antibacterial activity against Pseudomonas aeruginosa ATCC 25619 after 24 hr by NCCLS two-fold serial dilution method; assay type: functional; conditions: ATCC 25619, 24 h
Escherichia coli = experiment: Antibacterial activity against Escherichia coli ATCC 35218 after 24 hr by NCCLS two-fold serial dilution method; assay type: functional; conditions: ATCC 35218, 24 h

MIC (Aspergillus niger) [µg/mL] | MIC (Aspergillus flavus) [µg/mL] | MIC (Cryptococcus neoformans) [µg/mL] | MIC (Candida albicans) [µg/mL] | MIC (Enterococcus faecalis) [µg/mL] | MIC (Staphylococcus aureus) [µg/mL] | MIC (Pseudomonas aeruginosa) [µg/mL] | MIC (Escherichia coli) [µg/mL] | SMILES | IC50 (MCF7) [µM] | IC50 (A549) [µM] | IC50 (HT-29) [µM] | IC50 (HeLa) [µM]
16 (≈ 49 µM) | 32 (≈ 98.1 µM) | 16 (≈ 49 µM) | 16 (≈ 49 µM) | 32 (≈ 98.1 µM) | 32 (≈ 98.1 µM) | 32 (≈ 98.1 µM) | 32 (≈ 98.1 µM) | O=C(CC1SC(=O)NC1=O)Nc1nnc(C(F)(F)F)s1 (centres undefined) | 62 | 60 | 50 | 42
64 (≈ 191 µM) | 64 (≈ 191 µM) | 64 (≈ 191 µM) | 64 (≈ 191 µM) | 64 (≈ 191 µM) | 32 (≈ 95.7 µM) | 64 (≈ 191 µM) | 64 (≈ 191 µM) | O=C(CC1SC(=O)NC1=O)Nc1nnc(-c2ccccc2)s1 (centres undefined) | 80 | 80 | 78 | 62
16 (≈ 42.2 µM) | 64 (≈ 169 µM) | 64 (≈ 169 µM) | 64 (≈ 169 µM) | 64 (≈ 169 µM) | 32 (≈ 84.3 µM) | 64 (≈ 169 µM) | 64 (≈ 169 µM) | O=C(CC1SC(=O)NC1=O)Nc1nnc(-c2ccccc2[N+](=O)[O-])s1 (centres undefined) | 78 | 72 | 68 | 50
16 (≈ 43.4 µM) | 32 (≈ 86.8 µM) | 16 (≈ 43.4 µM) | 16 (≈ 43.4 µM) | 16 (≈ 43.4 µM) | 16 (≈ 43.4 µM) | 32 (≈ 86.8 µM) | 32 (≈ 86.8 µM) | O=C(CC1SC(=O)NC1=O)Nc1nnc(-c2ccccc2Cl)s1 (centres undefined) | 84 | 62 | 66 | 60
16 (≈ 37.7 µM) | 16 (≈ 37.7 µM) | 32 (≈ 75.4 µM) | 16 (≈ 37.7 µM) | 16 (≈ 37.7 µM) | 16 (≈ 37.7 µM) | 16 (≈ 37.7 µM) | 16 (≈ 37.7 µM) | COc1cc(-c2nnc(NC(=O)CC3SC(=O)NC3=O)s2)cc(OC)c1OC (centres undefined) | 36 | 30 | 35 | 33
16 (≈ 38.7 µM) | 16 (≈ 38.7 µM) | 16 (≈ 38.7 µM) | 16 (≈ 38.7 µM) | 32 (≈ 77.4 µM) | 8 (≈ 19.4 µM) | 32 (≈ 77.4 µM) | 32 (≈ 77.4 µM) | O=C(CC1SC(=O)NC1=O)Nc1nnc(-c2ccc(Br)cc2)s1 (centres undefined) | 72 | 68 | 60 | 52
4 (≈ 11.4 µM) | 8 (≈ 22.7 µM) | 8 (≈ 22.7 µM) | 8 (≈ 22.7 µM) | 4 (≈ 11.4 µM) | 4 (≈ 11.4 µM) | 8 (≈ 22.7 µM) | 8 (≈ 22.7 µM) | O=C(CC1SC(=O)NC1=O)Nc1nnc(-c2ccc(F)cc2)s1 (centres undefined) | 60 | 50 | 42 | 50
64 (≈ 169 µM) | 32 (≈ 84.3 µM) | 64 (≈ 169 µM) | 64 (≈ 169 µM) | 32 (≈ 84.3 µM) | 32 (≈ 84.3 µM) | 64 (≈ 169 µM) | 64 (≈ 169 µM) | O=C(CC1SC(=O)NC1=O)Nc1nnc(-c2ccc([N+](=O)[O-])cc2)s1 (centres undefined) | 72 | 68 | 60 | 50
16 (≈ 43.9 µM) | 32 (≈ 87.8 µM) | 16 (≈ 43.9 µM) | 16 (≈ 43.9 µM) | 4 (≈ 11 µM) | 16 (≈ 43.9 µM) | 16 (≈ 43.9 µM) | 32 (≈ 87.8 µM) | COc1ccc(-c2nnc(NC(=O)CC3SC(=O)NC3=O)s2)cc1 (centres undefined) | 42 | 45 | 44 | 42
32 (≈ 91.8 µM) | 32 (≈ 91.8 µM) | 32 (≈ 91.8 µM) | 16 (≈ 45.9 µM) | 4 (≈ 11.5 µM) | 8 (≈ 23 µM) | 16 (≈ 45.9 µM) | 16 (≈ 45.9 µM) | Cc1ccc(-c2nnc(NC(=O)CC3SC(=O)NC3=O)s2)cc1 (centres undefined) | 52 | 46 | 58 | 50
64 (≈ 169 µM) | 64 (≈ 169 µM) | 64 (≈ 169 µM) | 64 (≈ 169 µM) | 64 (≈ 169 µM) | 32 (≈ 84.3 µM) | 32 (≈ 84.3 µM) | 64 (≈ 169 µM) | O=C(CC1SC(=O)NC1=O)Nc1nnc(-c2cccc([N+](=O)[O-])c2)s1 (centres undefined) | 67 | 78 | 72 | 68
32 (≈ 87.8 µM) | 16 (≈ 43.9 µM) | 16 (≈ 43.9 µM) | 16 (≈ 43.9 µM) | 8 (≈ 22 µM) | 4 (≈ 11 µM) | 32 (≈ 87.8 µM) | 16 (≈ 43.9 µM) | COc1cccc(-c2nnc(NC(=O)CC3SC(=O)NC3=O)s2)c1 (centres undefined) | 58 | 60 | 56 | 54
32 (≈ 81.1 µM) | 16 (≈ 40.6 µM) | 16 (≈ 40.6 µM) | 16 (≈ 40.6 µM) | 32 (≈ 81.1 µM) | 16 (≈ 40.6 µM) | 16 (≈ 40.6 µM) | 16 (≈ 40.6 µM) | COc1ccc(-c2nnc(NC(=O)CC3SC(=O)NC3=O)s2)cc1OC (centres undefined) | 38 | 35 | 42 | 40
16 (≈ 43.4 µM) | 16 (≈ 43.4 µM) | 16 (≈ 43.4 µM) | 16 (≈ 43.4 µM) | 32 (≈ 86.8 µM) | 4 (≈ 10.8 µM) | 32 (≈ 86.8 µM) | 32 (≈ 86.8 µM) | O=C(CC1SC(=O)NC1=O)Nc1nnc(-c2ccc(Cl)cc2)s1 (centres undefined) | 68 | 60 | 64 | 62

SMILES | MIC (Aspergillus niger) [µg/mL] | MIC (Aspergillus flavus) [µg/mL] | MIC (Cryptococcus neoformans) [µg/mL] | MIC (Candida albicans) [µg/mL] | MIC (Enterococcus faecalis) [µg/mL] | MIC (Staphylococcus aureus) [µg/mL] | MIC (Pseudomonas aeruginosa) [µg/mL] | MIC (Escherichia coli) [µg/mL] | IC50 (MCF7) [µM] | IC50 (A549) [µM] | IC50 (HT-29) [µM] | IC50 (HeLa) [µM]
CC(=O)N1CCN(c2ccc(OCC3COC(Cn4ccnc4)(c4ccc(Cl)cc4Cl)O3)cc2)CC1 (centres undefined) [KETOCONAZOLE] | 2 (≈ 3.76 µM) | 1 (≈ 1.88 µM) | 2 (≈ 3.76 µM) | 2 (≈ 3.76 µM) |  |  |  |  |  |  |  | 
CC1(C)S[C@@H]2[C@H](NC(=O)[C@H](N)c3ccccc3)C(=O)N2[C@H]1C(=O)O [AMPICILLIN] |  |  |  |  | 2 (≈ 5.72 µM) | 2 (≈ 5.72 µM) |  |  |  |  |  | 
